The values below are quoted from earlier work in patent US7713569B2, “Hydroxytyrosol-rich composition from olive vegetation water and method of use thereof” (Creagri, Inc., priority 2000, dated 2010).

Molecules are shown by their SMILES.

For one data set, the system named is 5-lipoxygenase. The settings on record: de la Puerta et al., 1999; Kohyama et al., 1997.
For data set [1] the following is noted: humans; Visioli et al., 2000.
Data set [2] concerns peroxynitrite dependent DNA base modification and tyrosine nitration. To be noted: Deiana et al., 1999.
A further data set relates to platelet aggregation. The settings on record: Petroni et al., 1995.
Data set [3] deals with various human cellular systems. To be noted: Manna et al., 2000.
The test system of a further data set is 12-lipoxygenase. To be noted: de la Puerta et al., 1999; Kohyama et al., 1997.
For data set [4], the system named is low density lipoprotein (LDL) oxidation. To be noted: Visioli and Galli, 1998.

Regarding `OCCc1ccc(O)c(O)c1` [hydroxytyrosol, 3,4-dihydroxyphenethyl alcohol], the “inhibition of 5-lipoxygenase” value in the data set on 5-lipoxygenase is recorded as “inhibits”. For the same compound, the absorption following ingestion entry in data set [1] is recorded as “dose-dependently absorbed”. Besides, the “effect on peroxynitrite dependent DNA base modification and tyrosine nitration” value in data set [2] is recorded as “inhibitory effect”. Also, in the data set with platelet aggregation, the platelet aggregation result was “prevents”. Besides, the “cytotoxicity induced by reactive oxygen species” value in data set [3] was “counteracts”. Also, the “inhibition of 12-lipoxygenase” value in the data set with 12-lipoxygenase is “inhibits”. The LDL oxidation result in data set [4] is recorded as “prevents”.
